Test results: ChEMBL document CHEMBL4483862, “Open-source discovery of chemical leads for next-generation chemoprotective antimalarials” (2018)

Test system: Plasmodium berghei
Test: Luciferase/luciferin-expressing antifolate-resistant parasites were used to infect a culture of HepG2 cells that were pre-incubated with compounds. Infected hepatocytes emit light due to the luciferase reaction. Assay results are presented as the percent inhibition of light emission compared to control. […]
Type: functional
Settings: sporozoite; for IC90: read-out: LUCIFERASE INFECTION ASSAY - IC90
[1] = read-out: LUCIFERASE INFECTION ASSAY - IC50

| SMILES | IC90 [µM] | IC50 [1] [µM] | further results |
| --- | --- | --- | --- |
| Cc1ccc(CNc2nc(NCc3cccs3)nc3ccsc23)c(C)c1 | 1.63 |  | IC50 (PBLUC_HILL_SLOPE 356, PBLUC_R_SQUARED 0.443, read-out: LUCIFERASE INFECTION ASSAY - IC50): 1.62 µM |
| OCc1ccc(-c2cnc3ccc(NCc4ccc(F)cc4)nn23)cc1 | 1.24 |  | IC50 (HEPG2TOX_HILL_SLOPE 0.86, HEPG2TOX_R_SQUARED 0.883, PBLUC_HILL_SLOPE 13, PBLUC_R_SQUARED 0.726, read-out: LUCIFERASE INFECTION ASSAY - IC50): 1.05 µM |
| Cc1ccccc1-c1cn2c(-c3ccc(CO)cc3)cnc2cn1 | 10.4 |  | IC50 (HEPG2TOX_HILL_SLOPE 0.675, HEPG2TOX_R_SQUARED 0.753, PBLUC_HILL_SLOPE 1.37, PBLUC_R_SQUARED 0.689, read-out: LUCIFERASE INFECTION ASSAY - IC50): 2.1 µM |
| COc1ccc(-c2cnc3cnc(-c4ccccc4)cn23)cn1 | > 10.9 |  | IC50 (PBLUC_HILL_SLOPE 7.01, PBLUC_R_SQUARED 0.635, read-out: LUCIFERASE INFECTION ASSAY - IC50): 9.42 µM |
| Cc1c(/N=c2\scc(-c3cc4ccccc4o3)n2/N=C/c2ccsc2)c(=O)n(-c2ccccc2)n1C | 4.03 |  | IC50 (PBLUC_HILL_SLOPE 16.9, PBLUC_R_SQUARED 0.235, read-out: LUCIFERASE INFECTION ASSAY - IC50): 3.54 µM |
| CN(C)C(CNC(=O)c1ccc(NC(=O)OC(C)(C)C)cc1)c1cccs1 (stereo not drawn) | > 10 | > 10 |  |
| c1ccc(C2(CNc3ncnc4ccccc34)CCC2)cc1 | 5.71 |  | IC50 (HEPG2TOX_HILL_SLOPE 1.34, HEPG2TOX_R_SQUARED 0.743, PBLUC_HILL_SLOPE 15.9, 1.42, PBLUC_R_SQUARED 0.162, 0.799, read-out: LUCIFERASE INFECTION ASSAY - IC50): 2.35 µM |
| COC(=O)c1cc(C#N)c(Sc2ncc([N+](=O)[O-])s2)nc1C(OC)OC | > 8.32 |  | IC50 (FFLUC_HILL_SLOPE 0.469, FFLUC_R_SQUARED 0.297, HEPG2TOX_HILL_SLOPE 12.3, HEPG2TOX_R_SQUARED 0.829, PBLUC_HILL_SLOPE 2.84, PBLUC_R_SQUARED 0.141, read-out: LUCIFERASE INFECTION ASSAY - IC50): > 8.32 µM |
| CCn1c2ccccc2c2cc(NC(=O)C(C)OC(=O)c3ccc([N+](=O)[O-])o3)ccc21 (stereo not drawn) | > 10 | > 10 |  |
| Cn1nnnc1Sc1ccc([N+](=O)[O-])c2cnccc12 | 3.42 |  | IC50 (HEPG2TOX_HILL_SLOPE 3.78, HEPG2TOX_R_SQUARED 0.957, PBLUC_HILL_SLOPE 12.7, PBLUC_R_SQUARED 0.328, read-out: LUCIFERASE INFECTION ASSAY - IC50): 2.88 µM |
| C=CCN(c1ccccc1OC)S(=O)(=O)c1cccc(C(=O)Oc2c(Cl)cc(Cl)c3ccc(C)nc23)c1 | 6.11 |  | IC50 (PBLUC_HILL_SLOPE 68.6, PBLUC_R_SQUARED 0.538, read-out: LUCIFERASE INFECTION ASSAY - IC50): 5.92 µM |
| CC(=O)Nc1ccc(-c2ccc3ncc(-c4ccc(CO)cc4)n3n2)cc1 | > 10 |  | IC50 (HEPG2TOX_HILL_SLOPE 0.612, HEPG2TOX_R_SQUARED 0.859, PBLUC_HILL_SLOPE 1.16, PBLUC_R_SQUARED 0.655, read-out: LUCIFERASE INFECTION ASSAY - IC50): 1.9 µM |
| COc1cc2c(cc1NC(=O)Cn1cnc(C#N)n1)oc1ccccc12 | > 10 |  | IC50 (HEPG2TOX_HILL_SLOPE 16.6, HEPG2TOX_R_SQUARED 0.479, read-out: LUCIFERASE INFECTION ASSAY - IC50): > 10 µM |
| Cc1cc(C(=O)CSc2nnc(C3CC3)[nH]2)c(C)n1-c1cccc(C(F)(F)F)c1 | > 10 |  | IC50 (HEPG2TOX_HILL_SLOPE 7.7, HEPG2TOX_R_SQUARED 0.0445, PBLUC_HILL_SLOPE 1.16, PBLUC_R_SQUARED 0.631, read-out: LUCIFERASE INFECTION ASSAY - IC50): 3.51 µM |
| CC1=C2CCCC2CC/C1=N\NC(N)=O (stereo not drawn) | > 15.9 |  | IC50 (HEPG2TOX_HILL_SLOPE 20.4, HEPG2TOX_R_SQUARED 0.643, PBLUC_HILL_SLOPE 11.7, PBLUC_R_SQUARED 0.0908, read-out: LUCIFERASE INFECTION ASSAY - IC50): 14.9 µM |
| COc1cc2c(cc1OC)CN(c1nc(CN3CCOCC3)nc3sc4c(c13)CCC(C)C4)CC2 (stereo not drawn) | 3.91 |  | IC50 (PBLUC_HILL_SLOPE 15.9, PBLUC_R_SQUARED 0.656, read-out: LUCIFERASE INFECTION ASSAY - IC50): 3.41 µM |
| Nc1nccnc1C(=O)Nc1ncc(Cc2cc(Cl)cc(Cl)c2)s1 | 7.09 |  | IC50 (PBLUC_HILL_SLOPE 2.47, PBLUC_R_SQUARED 0.427, read-out: LUCIFERASE INFECTION ASSAY - IC50): 2.91 µM |

| SMILES | IC90 [µM] | IC50 [1] [µM] | further results |
| --- | --- | --- | --- |
| CCNc1nnc(SCc2nc(-c3cccs3)no2)s1 | > 10 | > 10 |  |
| Nc1c(C(=O)Nc2cccc(Cl)c2)sc2nc3c(c(-c4cccnc4)c12)CCC3 | > 7.84 |  | IC50 (FFLUC_HILL_SLOPE 1.24, FFLUC_R_SQUARED 0.605, PBLUC_HILL_SLOPE 2.61, PBLUC_R_SQUARED 0.023, read-out: LUCIFERASE INFECTION ASSAY - IC50): > 7.84 µM |
| Cc1ccc(C)c(NC(=O)CN(C)C(=O)CN(C)C(C)c2ccccc2)c1 (stereo not drawn) | > 10 | > 10 |  |
| COc1ccc(OC)c(CCNc2nc3cnc(-c4cccc(NS(C)(=O)=O)c4)cc3n2C)c1 | > 10 | > 10 |  |
| FC(F)(F)c1cc(NCc2ccccc2Cl)nc(-c2ccccn2)n1 | 6.29 |  | IC50 (PBLUC_HILL_SLOPE 3.68, PBLUC_R_SQUARED 0.577, read-out: LUCIFERASE INFECTION ASSAY - IC50): 3.46 µM |
| CC(C)c1ccc(NC(=O)Nc2nc(C(N)COCc3ccccc3)cs2)cc1 (stereo not drawn) | > 8.04 |  | IC50 (PBLUC_HILL_SLOPE 1.46, PBLUC_R_SQUARED 0.665, read-out: LUCIFERASE INFECTION ASSAY - IC50): 4.91 µM |
| COc1ccc(C2CCCCCN2C(=O)CCc2c(C)[nH]c(-c3ccccc3)nc2=O)cc1 (stereo not drawn) | 3.45 |  | IC50 (PBLUC_HILL_SLOPE 57.7, PBLUC_R_SQUARED 0.487, read-out: LUCIFERASE INFECTION ASSAY - IC50): 3.32 µM |
| COc1ccc(Nc2nccn3c(-c4cccc(C(=O)NCCO)c4)cnc23)cc1 | 4.59 |  | IC50 (FFLUC_HILL_SLOPE 1.47, FFLUC_R_SQUARED 0.89, PBLUC_HILL_SLOPE 0.68, PBLUC_R_SQUARED 0.895, read-out: LUCIFERASE INFECTION ASSAY - IC50): 0.181 µM |
| O=C(CCN1c2ccccc2Sc2ccccc21)Nc1ccc2ccccc2c1 | > 10 | > 10 |  |
| CC(=O)c1ccccc1NC(=O)COC(=O)c1c2c(nc3ccccc13)CCC2 | > 10 |  | IC50 (HEPG2TOX_HILL_SLOPE 1.9, HEPG2TOX_R_SQUARED 0.384, PBLUC_HILL_SLOPE 3.75, PBLUC_R_SQUARED 0.218, read-out: LUCIFERASE INFECTION ASSAY - IC50): 6.16 µM |
| CCCc1ccc(C(NC(=O)Cn2ccc(=O)[nH]c2=O)c2cccs2)cc1 (stereo not drawn) | > 10 | > 10 |  |
| COc1cc(CNc2ncnc3sc(-c4ccccc4)cc23)ccn1 | > 10 | 8.74 |  |
| CCOCCCNC(=O)/C(C#N)=C/c1ccc(Cl)c([N+](=O)[O-])c1 | 9.95 | 5.19 |  |
| CC(=O)c1csc(NC(=O)c2cc(C(C)C)nc3c2c(C)nn3C(C)(C)C)n1 | > 10 | > 10 |  |
| O=C(Nc1cccc(Cl)c1)N1CCN(C(=O)c2ccoc2)CC1 | > 10 | > 10 |  |
| CCn1c(=O)n(Cc2cc(Cl)c3c(c2)OCO3)c2ccccc21 | > 10 | > 10 |  |
| CC(C)(C)c1cc(C(=O)NNC(=O)Nc2cccc(C(F)(F)F)c2)n(Cc2ccccc2)n1 | > 7.18 | > 7.18 |  |
